Source: paper PMC3605428, “A Readily Applicable Strategy to Convert Peptides to Peptoid-based Therapeutics” (PLoS ONE, 2013)
Non-standard residues stand in square brackets, D forms with d. No end group written: not given here. *: point of attachment. FITC = O=C1OC2(c3ccc(O)cc3Oc3cc(O)ccc32)c2ccc(NC(=S)*)cc21; Sar = CNCC(=O)O

System: 5-helix bundle (5HB) protein mimicking hRSV fusion protein F
Test: 5HB-based competitive fluorescence polarization (FP) binding assay
Set-up: species or system human respiratory syncytial virus (hRSV)
Conditions: 200 µM peptide; inhibition of Fl-C35 tracer (5 nM) binding to 5HB (20 nM); FP buffer 20 mM PBS pH 7.4, 500 mM NaCl, 0.01% Tween-20, 0.05 mg/ml bovine gamma globulin; 1 h + 30 min at room temperature; ex 485/em 530 nm
Protocol: Competitive FP binding assays of the C20 derivatives were carried out as previously described. Briefly, a 5-helix bundle (5HB) protein was designed to mimic a post-fusion structure of fusion protein F (6-helix bundle) and provide a specific binding site for screening potential human respiratory syncytial virus (hRSV) entry inhibitors. Using a 5HB protein as a target protein and a fluorescently labeled 35 amino acid-long peptide (Fl-C35, sequence shown in Table S1) as a tracer, we performed a competitive FP assay to evaluated the binding affinity of each C20 analogue prepared in this study. In each well of a black 96-well plate (Corning Inc. Lowell, MA, USA), 20 nM of the 5HB with increasing concentrations of each peptomer in FP buffer (20 mM PBS at pH 7.4, 500 mM NaCl, 0.01% (v/v) Tween-20, and 0.05 mg/ml bovine gamma globulin) in a final volume of 185 µL was incubated for 1h at room temperature. Fl-C35 was then added to a final concentration of 5 nM followed by 30 min incubation at room temperature. The FP responses were monitored using a Synergy4 plate reader (Biotek, Winooski, VT, USA) with an excitation wavelength of 485 nm and an emission wavelength of 530 nm. The percentage of inhibition (% Inhibition) was calculated from the equation: % inhibition = 100×[1-(mP-mPf)/(mPb-mPf)]. Unbound Fl-C35 (mPf), bound Fl-C35 (mPb) and the bound inhibitor to the 5HB (mP) are used accordingly.
Sample preparation for FP measurements.

Substance | % Inhibition at 200 µM [%]
ASQVNEKINQSLAFIRKSDE [Peptide A1, alanine-substituted C20 peptide] | 15.45
IAQVNEKINQSLAFIRKSDE [Peptide A2, alanine-substituted C20 peptide] | 23.63
IPQVNEKINQSLAFIRKSDE [Peptide P2, proline-substituted C20 peptide] | 23.15
ISAVNEKINQSLAFIRKSDE [Peptide A3, alanine-substituted C20 peptide] | 27.27
ISPVNEKINQSLAFIRKSDE [Peptide P3, proline-substituted C20 peptide] | 14.81
ISQANEKINQSLAFIRKSDE [Peptide A4, alanine-substituted C20 peptide] | 40.00
ISQPNEKINQSLAFIRKSDE [Peptide P4, proline-substituted C20 peptide] | 12.96
ISQVAEKINQSLAFIRKSDE [Peptide A5, alanine-substituted C20 peptide] | 25.90
ISQVNAKINQSLAFIRKSDE [Peptide A6, alanine-substituted C20 peptide] | 89.09
ISQVNEAINQSLAFIRKSDE [Peptide A7, alanine-substituted C20 peptide] | 100.00
ISQVNEKANQSLAFIRKSDE [Peptide A8, alanine-substituted C20 peptide] | 13.63
ISQVNEKIAQSLAFIRKSDE [Peptide A9, alanine-substituted C20 peptide] | 30.90
ISQVNEKINASLAFIRKSDE [Peptide A10, alanine-substituted C20 peptide] | 11.36
ISQVNEKINPSLAFIRKSDE [Peptide P10, proline-substituted C20 peptide] | 9.26
ISQVNEKINQALAFIRKSDE [Peptide A11, alanine-substituted C20 peptide] | 33.18
ISQVNEKINQPLAFIRKSDE [Peptide P11, proline-substituted C20 peptide] | 9.26
ISQVNEKINQSAAFIRKSDE [Peptide A12, alanine-substituted C20 peptide] | 43.63
ISQVNEKINQSLAAIRKSDE [Peptide A14, alanine-substituted C20 peptide] | 25.00
ISQVNEKINQSLAFARKSDE [Peptide A15, alanine-substituted C20 peptide] | 21.36
ISQVNEKINQSLAFIAKSDE [Peptide A16, alanine-substituted C20 peptide] | 53.63
ISQVNEKINQSLAFIPKSDE [Peptide P16, proline-substituted C20 peptide] | 4.63

Substance | % Inhibition at 200 µM [%]
ISQVNEKINQSLAFIRASDE [Peptide A17, alanine-substituted C20 peptide] | 100.00
ISQVNEKINQSLAFIRKADE [Peptide A18, alanine-substituted C20 peptide] | 36.81
ISQVNEKINQSLAFIRKPDE [Peptide P18, proline-substituted C20 peptide] | 0.93
ISQVNEKINQSLAFIRKSAE [Peptide A19, alanine-substituted C20 peptide] | 31.81
ISQVNEKINQSLAFIRKSDA [Peptide A20, alanine-substituted C20 peptide] | 29.09
ISQVNEKINQSLAFIRKSDE [Peptide A13, alanine scan entry for position 13] | 100.00
ISQVNEKINQSLAFIRKSDE [Peptide C20, 20 amino acid-long peptide derived from the 6th helix of hRSV fusion protein F] | 100
ISQVNEKINQSLAFIRKSDP [Peptide P20, proline-substituted C20 peptide] | 31.48
ISQVNEKINQSLAFIRKSD[Sar] [Sar20, sarcosine-substituted C20 peptide] | 100.00
ISQVNEKINQSLAFIRKSPE [Peptide P19, proline-substituted C20 peptide] | 84.26
ISQVNEKINQSLAFIRKS[Sar]E [Sar19, sarcosine-substituted C20 peptide] | 59.26
ISQVNEKINQSLAFIRK[Sar]DE [Sar18, sarcosine-substituted C20 peptide] | 21.30
ISQVNEKINQSLAFIRPSDE [Peptide P17, proline-substituted C20 peptide] | 6.48
ISQVNEKINQSLAFIR[Sar]SDE [Sar17, sarcosine-substituted C20 peptide] | 84.26
ISQVNEKINQSLAFI[Sar]KSDE [Sar16, sarcosine-substituted C20 peptide] | 0.00
ISQVNEKINQSLAFPRKSDE [Peptide P15, proline-substituted C20 peptide] | 4.63
ISQVNEKINQSLAF[Sar]RKSDE [Sar15, sarcosine-substituted C20 peptide] | 30.56
ISQVNEKINQSLAPIRKSDE [Peptide P14, proline-substituted C20 peptide] | 13.89
ISQVNEKINQSLA[Sar]IRKSDE [Sar14, sarcosine-substituted C20 peptide] | 4.63
ISQVNEKINQSLPFIRKSDE [Peptide P13, proline-substituted C20 peptide] | 10.19
ISQVNEKINQSL[Sar]FIRKSDE [Sar13, sarcosine-substituted C20 peptide] | 4.63

Substance | % Inhibition at 200 µM [%]
ISQVNEKINQSPAFIRKSDE [Peptide P12, proline-substituted C20 peptide] | 22.22
ISQVNEKINQS[Sar]AFIRKSDE [Sar12, sarcosine-substituted C20 peptide] | 7.41
ISQVNEKINQ[Sar]LAFIRKSDE [Sar11, sarcosine-substituted C20 peptide] | 13.89
ISQVNEKIN[Sar]SLAFIRKSDE [Sar10, sarcosine-substituted C20 peptide] | 21.30
ISQVNEKIPQSLAFIRKSDE [Peptide P9, proline-substituted C20 peptide] | 33.33
ISQVNEKI[Sar]QSLAFIRKSDE [Sar9, sarcosine-substituted C20 peptide] | 13.89
ISQVNEKPNQSLAFIRKSDE [Peptide P8, proline-substituted C20 peptide] | 11.11
ISQVNEK[Sar]NQSLAFIRKSDE [Sar8, sarcosine-substituted C20 peptide] | 26.85
ISQVNE[Sar]INQSLAFIRKSDE [Sar7, sarcosine-substituted C20 peptide] | 100.00
ISQVNPKINQSLAFIRKSDE [Peptide P6, proline-substituted C20 peptide] | 26.85
ISQVN[Sar]KINQSLAFIRKSDE [Sar6, sarcosine-substituted C20 peptide] | 108.33
ISQVPEKINQSLAFIRKSDE [Peptide P5, proline-substituted C20 peptide] | 34.26
ISQV[Sar]EKINQSLAFIRKSDE [Sar5, sarcosine-substituted C20 peptide] | 23.15
ISQ[Sar]NEKINQSLAFIRKSDE [Sar4, sarcosine-substituted C20 peptide] | 1.85
IS[Sar]VNEKINQSLAFIRKSDE [Sar3, sarcosine-substituted C20 peptide] | 11.11
I[Sar]QVNEKINQSLAFIRKSDE [Sar2, sarcosine-substituted C20 peptide] | 22.22
PSQVNEKINQSLAFIRKSDE [Peptide P1, proline-substituted C20 peptide] | 26.85
[Sar]SQVNEKINQSLAFIRKSDE [Sar1, sarcosine-substituted C20 peptide] | 15.74
{FITC}-YDPLVFPSDEFDASISQVNEKINQSLAFIRKSDEL [Fl-C35, fluorescently labeled 35 amino acid-long peptide used as tracer, reference compound] | 100
